Read-outs that look alike come from different tables or passages of the source.
Experiments:
[1] = system: P. falciparum female gametocytes; experiment: P. falciparum Dual Gamete Formation Assay (PfDGFA), female readout (Pfs25-positive female gametes); assay type: cell-based, Plasmodium falciparum NF54
Summary of the method: (§1)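 First, day-14 P. falciparum NF54 gametocytes receive compound for 24 h at 37°C in 1% O2/3% CO2. Next, ookinete medium with Cy3 anti-Pfs25 triggers gametogenesis at 28°C and male exflagellation is imaged. Finally, after 24 h in the dark, Cy3-labelled females are imaged.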

[2] = system: P. falciparum male gametocytes; experiment: P. falciparum Dual Gamete Formation Assay (PfDGFA), male readout (exflagellation); assay type: cell-based, Plasmodium falciparum NF54; details: for Activity: hit = >50% inhibition in male or female readout in at least 3 replicates, 0 = no class assigned
Summary of the method: as §1

[3] = PfDGFA at 2µM, 24h preincubation with gametocytes, average of replicates
[4] = PfDGFA at 2µM, 24h preincubation with gametocytes, replicate R1
[5] = PfDGFA at 2µM, 24h preincubation with gametocytes, replicate R3
[6] = PfDGFA at 2µM, 24h preincubation with gametocytes, replicate R4
[7] = number of replicates with >50% inhibition in the female readout, 2µM
[8] = number of replicates with >50% inhibition in the male readout, 2µM
[9] = PfDGFA at 2µM, 24h preincubation with gametocytes prior to induction of gametogenesis, replicate R1
[10] = PfDGFA at 2µM, 24h preincubation with gametocytes prior to induction of gametogenesis, replicate R3
[11] = PfDGFA at 2µM, 24h preincubation with gametocytes prior to induction of gametogenesis, replicate R4
[12] = PfDGFA at 2µM, 24h preincubation, average of replicates
[13] = 2µM, 24h preincubation with gametocytes prior to induction of gametogenesis, average of replicates
[14] = 2µM, 24h preincubation with gametocytes prior to induction of gametogenesis, replicate R1
[15] = 2µM, 24h preincubation with gametocytes prior to induction of gametogenesis, replicate R3
[16] = 2µM, 24h preincubation with gametocytes prior to induction of gametogenesis, replicate R4
[17] = 2µM, 24h preincubation, number of replicates with >50% inhibition in the female readout
[18] = 2µM, 24h preincubation, number of replicates with >50% inhibition in the male readout
[19] = 2µM, 24h preincubation, hits selected on >50% inhibition in the female readout across replicates
[20] = 2µM, 24h preincubation, hits selected on >50% inhibition in the male readout across replicates
[21] = PfDGFA at 2µM, 24h preincubation
[22] = 2µM, 24h preincubation with gametocytes, average of replicates
[23] = 2µM, 24h preincubation with gametocytes, replicate R1
[24] = 2µM, 24h preincubation with gametocytes, replicate R3
[25] = 2µM, 24h preincubation with gametocytes, replicate R4

SMILES: CC(=O)c1ccc2nc[nH]c(=O)c2c1 [TCMDC-138172]
- Average inhibition female (%) [1, 3]: 55.1%
- % inhibition female (individual replicates) R1 [1, 4]: 62.7%
- % inhibition female (individual replicates) R3 [1, 5]: 39.9%
- % inhibition female (individual replicates) R4 [1, 6]: 66.0%
- HitlevelF [1, 7]: 3
- Average inhibition male (%) [2, 3]: 79.0%
- % inhibition male (individual replicates) R1 [2, 4]: 88.9%
- % inhibition male (individual replicates) R3 [2, 5]: 57.7%
- % inhibition male (individual replicates) R4 [2, 6]: 96.3%
- HitlevelM [2, 8]: 4

SMILES: CC(C)n1cc2c(ccc3nc(N)nc(N)c32)n1 [TCMDC-137865]
- % inhibition female (individual replicates) R1 [1, 9]: 4.2%
- % inhibition female (individual replicates) R3 [1, 10]: -9.2%
- % inhibition female (individual replicates) R4 [1, 11]: -1.6%
- Average inhibition female (%) [1, 12]: -0.07%
- % inhibition male (individual replicates) R1 [2, 9]: 12.4%
- % inhibition male (individual replicates) R3 [2, 10]: -22.8%
- % inhibition male (individual replicates) R4 [2, 11]: -29.8%
- Average inhibition male (%) [2, 12]: -10.2%

SMILES: Cl.Clc1ccc(CNCCCCCCCNCc2ccc(Cl)c(Cl)c2)cc1Cl [TCMDC-138075]
- Average inhibition female (%) [1, 13]: 16.8%
- % inhibition female (individual replicates) R1 [1, 14]: 19.3%
- % inhibition female (individual replicates) R3 [1, 15]: 11.6%
- % inhibition female (individual replicates) R4 [1, 16]: 13.1%
- HitlevelF [1, 17]: 0
- Average inhibition male (%) [2, 13]: 58.0%
- % inhibition male (individual replicates) R1 [2, 14]: 51.9%
- % inhibition male (individual replicates) R4 [2, 16]: 51.1%
- HitlevelM [2, 18]: 3

SMILES: COc1ccc(Cc2c(N)nc3nc(N)nc(N)c3c2C)cc1.Cl [TCMDC-138061]
- % inhibition female (individual replicates) R1 [1, 9]: -3.3%
- % inhibition female (individual replicates) R3 [1, 10]: 4.2%
- % inhibition female (individual replicates) R4 [1, 11]: -0.2%
- Average inhibition female (%) [1, 12]: 0.4%
- % inhibition male (individual replicates) R1 [2, 9]: 17.1%
- % inhibition male (individual replicates) R4 [2, 11]: -37.2%
- Average inhibition male (%) [2, 12]: 0.0933%

SMILES: Cn1c(Sc2ncnc3sccc23)nc2ccccc21 [TCMDC-124514]
- Selectivity ratio F ([1]; HepG2 Tox50 versus female IC50): 179.15
- inhibition at 2 µM ([1]; Plasmodium falciparum, PfDGFA at 2µM, 24h preincubation with gametocytes, average of replicates, read-out: Average inhibition female (%)): 56.9%
- inhibition at 2 µM ([1]; Plasmodium falciparum, PfDGFA at 2µM, 24h preincubation with gametocytes, replicate R1, read-out: % inhibition female (individual replicates) R1): 48.2%
- inhibition at 2 µM ([1]; Plasmodium falciparum, PfDGFA at 2µM, 24h preincubation with gametocytes, replicate R2, read-out: % inhibition female (individual replicates) R2): 73.8%
- inhibition at 2 µM ([1]; Plasmodium falciparum, PfDGFA at 2µM, 24h preincubation with gametocytes, replicate R3, read-out: % inhibition female (individual replicates) R3): 37.5%
- inhibition at 2 µM ([1]; Plasmodium falciparum, PfDGFA at 2µM, 24h preincubation with gametocytes, replicate R4, read-out: % inhibition female (individual replicates) R4): 68.1%
- IC50 ([1]; Plasmodium falciparum, PfDGFA, 24 h incubation with gametocytes before induction, female gamete readout, read-out: Female IC50): 560 nM
- HitlevelF [1, 7]: 2
- Selectivity Ratio M ([2]; HepG2 Tox50 versus male IC50): 138.65
- inhibition at 2 µM ([2]; Plasmodium falciparum, PfDGFA at 2µM, 24h preincubation with gametocytes, average of replicates, read-out: Average inhibition male (%)): 74.4%
- inhibition at 2 µM ([2]; Plasmodium falciparum, PfDGFA at 2µM, 24h preincubation with gametocytes, replicate R1, read-out: % inhibition male (individual replicates) R1): 82.1%
- inhibition at 2 µM ([2]; Plasmodium falciparum, PfDGFA at 2µM, 24h preincubation with gametocytes, replicate R2, read-out: % inhibition male (individual replicates) R2): 75.9%
- inhibition at 2 µM ([2]; Plasmodium falciparum, PfDGFA at 2µM, 24h preincubation with gametocytes, replicate R3, read-out: % inhibition male (individual replicates) R3): 86.7%
- inhibition at 2 µM ([2]; Plasmodium falciparum, PfDGFA at 2µM, 24h preincubation with gametocytes, replicate R4, read-out: % inhibition male (individual replicates) R4): 52.9%
- IC50 ([2]; Plasmodium falciparum, PfDGFA, 24 h incubation with gametocytes before induction, exflagellation readout, read-out: Male IC50): 720 nM
- HitlevelM [2, 8]: 4

SMILES: Br.CCCCc1ccc(CCNCCCCCCNCCc2ccc(O)c(O)c2)cc1 [TCMDC-131281]
- Average inhibition female (%) [1, 3]: 39.8%
- % inhibition female (individual replicates) R1 [1, 4]: 30.3%
- % inhibition female (individual replicates) R3 [1, 5]: 35.5%
- % inhibition female (individual replicates) R4 [1, 6]: 31.1%
- HitlevelF [1, 7]: 1
- Average inhibition male (%) [2, 3]: 80.5%
- % inhibition male (individual replicates) R1 [2, 4]: 68.8%
- % inhibition male (individual replicates) R4 [2, 6]: 77.5%
- HitlevelM [2, 8]: 3

SMILES: COc1ccc(-c2cnc(NCc3ccccc3)nc2)cc1CNC1CCN(C)CC1.O=C(O)C(F)(F)F [TCMDC-134121]
- Average inhibition female (%) [1, 13]: 23.3%
- % inhibition female (individual replicates) R1 [1, 14]: 22.9%
- % inhibition female (individual replicates) R3 [1, 15]: 24.0%
- % inhibition female (individual replicates) R4 [1, 16]: 18.0%
- HitlevelF [1, 17]: 0
- Average inhibition male (%) [2, 13]: 49.5%
- % inhibition male (individual replicates) R1 [2, 14]: 40.8%
- % inhibition male (individual replicates) R4 [2, 16]: 53.6%
- HitlevelM [2, 18]: 2

SMILES: COc1cc2nc(N3CCN(C(=O)c4c(Cl)nsc4-c4ccccc4Cl)CC3)nc(N)c2cc1OC.O=C(O)C(F)(F)F [TCMDC-138186]
- Average inhibition female (%) [1, 13]: 23.5%
- % inhibition female (individual replicates) R1 [1, 14]: 19.4%
- % inhibition female (individual replicates) R3 [1, 15]: 2.1%
- % inhibition female (individual replicates) R4 [1, 16]: 50.6%
- HitlevelF [1, 17]: 1
- Average inhibition male (%) [2, 13]: 36.4%
- % inhibition male (individual replicates) R1 [2, 14]: 33.1%
- % inhibition male (individual replicates) R3 [2, 15]: -9.1%
- % inhibition male (individual replicates) R4 [2, 16]: 66.9%
- HitlevelM [2, 18]: 2

SMILES: CCCc1cc(Cc2cnc(N)nc2N)cc(CCC)c1OCCCCC(=O)O [TCMDC-137293]
- Average inhibition female (%) [1, 13]: 8.1%
- % inhibition female (individual replicates) R1 [1, 14]: 3.0%
- % inhibition female (individual replicates) R3 [1, 15]: -4.5%
- % inhibition female (individual replicates) R4 [1, 16]: 42.6%
- HitlevelF [1, 19]: 0
- Average inhibition male (%) [2, 13]: -0.757%
- % inhibition male (individual replicates) R1 [2, 14]: 18.6%
- % inhibition male (individual replicates) R3 [2, 15]: 1.6%
- % inhibition male (individual replicates) R4 [2, 16]: -35.8%
- HitlevelM [2, 20]: 0
- Activity [2, 21]: 0

SMILES: CCS(=O)(=O)c1ccc(OC)c(Nc2nccc(-c3c(-c4cccc(NC(=O)c5c(F)cccc5F)c4)nn4ncccc34)n2)c1 [TCMDC-135682]
- Average inhibition female (%) [1, 13]: 14.6%
- % inhibition female (individual replicates) R1 [1, 14]: 17.1%
- % inhibition female (individual replicates) R3 [1, 15]: 13.9%
- % inhibition female (individual replicates) R4 [1, 16]: 13.6%
- HitlevelF [1, 19]: 0
- Average inhibition male (%) [2, 13]: 69.4%
- % inhibition male (individual replicates) R1 [2, 14]: 83.8%
- % inhibition male (individual replicates) R4 [2, 16]: 34.3%
- HitlevelM [2, 20]: 2
- Activity [2, 21]: 0

SMILES: CCc1c(CCNCCCCCCNCCc2ccc(OC)c(OC)c2CC)ccc(OC)c1OC.Cl [TCMDC-132047]
- Average inhibition female (%) [1, 13]: 17.9%
- % inhibition female (individual replicates) R1 [1, 14]: 11.5%
- % inhibition female (individual replicates) R3 [1, 15]: 7.6%
- % inhibition female (individual replicates) R4 [1, 16]: 17.6%
- HitlevelF [1, 17]: 0
- Average inhibition male (%) [2, 13]: 61.2%
- % inhibition male (individual replicates) R1 [2, 14]: 56.6%
- % inhibition male (individual replicates) R3 [2, 15]: 45.7%
- % inhibition male (individual replicates) R4 [2, 16]: 80.2%
- HitlevelM [2, 18]: 3

SMILES: CS(=O)(=O)O.FC(F)(F)COc1ccc2ccccc2c1CNCCCCCCNCc1c(OCC(F)(F)F)ccc2ccccc12 [TCMDC-137816]
- Average inhibition female (%) [1, 22]: 42.8%
- % inhibition female (individual replicates) R1 [1, 23]: 37.4%
- % inhibition female (individual replicates) R3 [1, 24]: 26.9%
- % inhibition female (individual replicates) R4 [1, 25]: 39.6%
- Average inhibition male (%) [2, 22]: 91.3%
- % inhibition male (individual replicates) R1 [2, 23]: 97.0%
- % inhibition male (individual replicates) R3 [2, 24]: 82.6%
- % inhibition male (individual replicates) R4 [2, 25]: 90.9%

SMILES: COc1ccc(-c2cccc(CNC3CCN(C)CC3)c2)cc1S(=O)(=O)NCc1ccccc1.O=C(O)C(F)(F)F [TCMDC-132375]
- Average inhibition female (%) [1, 13]: 14.0%
- % inhibition female (individual replicates) R1 [1, 14]: 15.7%
- % inhibition female (individual replicates) R3 [1, 15]: 4.8%
- % inhibition female (individual replicates) R4 [1, 16]: 20.5%
- HitlevelF [1, 19]: 0
- Average inhibition male (%) [2, 13]: 31.3%
- % inhibition male (individual replicates) R1 [2, 14]: 25.4%
- % inhibition male (individual replicates) R3 [2, 15]: 11.7%
- % inhibition male (individual replicates) R4 [2, 16]: 56.9%
- HitlevelM [2, 20]: 1
- Activity [2, 21]: 0

SMILES: Br.Oc1cccc(CCNCCCCCCNCCc2ccc(Cl)cc2)c1 [TCMDC-131285]
- Average inhibition female (%) [1, 13]: 14.3%
- % inhibition female (individual replicates) R1 [1, 14]: 12.4%
- % inhibition female (individual replicates) R3 [1, 15]: 15.9%
- % inhibition female (individual replicates) R4 [1, 16]: 17.3%
- HitlevelF [1, 19]: 0
- Average inhibition male (%) [2, 13]: 17.5%
- % inhibition male (individual replicates) R1 [2, 14]: 13.8%
- % inhibition male (individual replicates) R3 [2, 15]: 6.4%
- % inhibition male (individual replicates) R4 [2, 16]: 28.9%
- HitlevelM [2, 20]: 0
- Activity [2, 21]: 0

Reference: paper PMC10584170, “Machine learning-based phenotypic imaging to characterise the targetable biology of Plasmodium falciparum male gametocytes for the development of transmission-blocking antimalarials” (PLOS Pathogens, 2023)
